Earlier results, collected in paper PMC3166015 (Emerging Infectious Diseases, 2011).

Tested on: earliest pandemic (H1N1) 2009 virus isolates
Settings: cited from earlier work

Row | SMILES | susceptibility of earliest virus isolates
1 | CCOC(=O)C1=C[C@@H](OC(CC)CC)[C@H](NC(C)=O)[C@@H](N)C1 [Oseltamivir, oseltamivir] | sensitive
2 | CC(=O)N[C@H]1[C@H]([C@H](O)[C@H](O)CO)OC(C(=O)O)=C[C@@H]1N=C(N)N [Zanamivir, zanamivir] | sensitive
3 | NC12CC3CC(CC(C3)C1)C2 [amantadine] | resistant
4 | CC(N)C12CC3CC(CC(C3)C1)C2 (stereo not shown) [rimantadine] | resistant
